Laboratory results as given in publication PMC12434534, “Synthesis and Antiviral Evaluation of Unexplored Dioxolane-Derived 7‑Deazapurine Nucleoside Analogues against Epstein–Barr Virus (EBV)” (ACS Medicinal Chemistry Letters, 2025).
Where two headings read alike, the source gives them in different places.

Columns and labels:
[1] = Cytotoxicity in P3HR-1 cells (XTT or MTT assay); format: cell-based; details: human
[2] = test system: EBV; test: Anti-EBV assay: reduction of EBV DNA synthesis (qPCR) in TPA-induced P3HR-1 cells; details: for EC50: human gammaherpesvirus 4, P3HR-1, 120 h, read-out: EC50, Antiviral Activity against EBV (in P3HR-1 Cells); for EC90: human gammaherpesvirus 4, P3HR-1, read-out: EC90, Antiviral Activity against EBV (in P3HR-1 Cells); for SI (CC50/EC50), EBV: selectivity index = CC50/EC50, P3HR-1 cells
Description: The antiviral potency of all synthesized nucleosides was evaluated by in-vitro cell-based assays. P3HR-1 cells were seeded in 24-well plates at a density of 1 × 10^6 cells/mL. EBV replication was induced by adding 25 ng/mL 12-O-tetradecanoylphorbol 13-acetate (TPA) (Sigma–Aldrich, Bornem, Belgium) to the growing cells. The next day, cells were washed and resuspended in fresh medium in the presence or absence of various concentrations of synthesized nucleosides (12–19). Ganciclovir (GCV) was used as antiviral control. On day 5 post-induction, total cellular DNA was extracted (QIAamp DNA kit; Qiagen Benelux B.V, Venlo, The Netherlands), and viral DNA was quantified by quantitative PCR (qPCR) using an ABI Prism 7500 Sequence Detection System (Applied Biosystems, Foster City, CA). Thermocycling conditions for all qPCRs were done following the manufacturer’s instructions. […] The results were obtained as a means from at least three independent experiments. The selectivity index of the compound was determined by the ratio of CC50/EC50. For both efficacy and cytotoxicity assays, the 50% reduction in efficacy (EC50) and cell viability (CC50) was determined using GraphPad software (GraphPad, San Diego, CA, USA, www.graphpad.com).
0.2, 0.04, 0 μM). TPA was removed after 24 h, and the same concentration of compounds was […]
replaced. […]
Real-time PCR detection of viral DNA: EBV DNA was extracted with a QIAGEN Dneasy Blood and Tissue Kit. The DNA volume was 30 μL. DNA concentration (ng/μL) was determined with a Nanophotometer (IMPLEN). The Real -time PCR was performed using QuantiTect Sybr Green PCR Kit. The amplicon was a 71 bp portion of the EBNA1 gene. The primers were […]
(§1) The 20 μL PCR sample contained 100 ng
DNA, 10 μL Universal PCR Master Mix, primer (0.5 uM final concentration), 1 μL BamH I-HF (Restriction Enzyme, BioLabs) and RNase -free water. The PCR program consisted of 1 cycle at 50 °C, 2 minutes of UNG pretreatment, followed by 1 cycle at 95 °C for 15 minutes. Then 40 cycles of 94 °C for 15 seconds, 55 °C for 30 seconds, and 72 °C for 30 seconds were carried out.
(§2) Evaluation of Cytotoxicity: The cytotoxic effects of test compounds for P3HR1 and TZN-GFP cells were determined by CellTiter 96 Non-Radioactive Cell Proliferation assay system (Promega) using either 2,3-Bis-(2-Methoxy-4-nitro-5-sulfophenyl)-2H-tetrazolium-5-carboxanilide, disodium salt (XTT) or 3- (4,5-dimethylthiazol-2-yl)-2,5-diphenyltetrazolium bromide (MTT) methods under the same conditions as the antiviral assay but in the absence virus. Cells were seeded at a density of 1 x 105 (P3HR-1) or 2 x 104 (TZM-GFP) cells per well in 96-well plates and […]

[3] = Cytotoxicity in TZM-GFP cells (XTT or MTT assay); format: cell-based; details: human; concentration reducing cellular viability by 50% after 48 h, XTT or MTT assay; TZM-GFP cells
Description: (§3) plate. […] At 48 h post-infection (hpi), the
(§4) Blood and Tissue Kit. The DNA volume was 30 μL. DNA concentration (ng/μL) was determined with a Nanophotometer (IMPLEN). The Real -time PCR was performed using QuantiTect Sybr […]
(§5) Green PCR Kit. […] The primers were
as §1
(§6) (Restriction Enzyme, BioLabs) and RNase -free water. The PCR program consisted of 1 cycle at […]
(§7) allowed to incubate overnight. On the second day, different concentrations of test compounds were […]
(§8) added to respective cells. Following 4 days of incubation at 37 °C in a CO2 incubator, the MTT or […]
(§9) XTT reagent was added, and the cells were incubated for 3 hours at 37 °C. Subsequently, the […]
(§10) absorbance of the samples was measured using a microplate reader (Biotek). The cytotoxic […]
(§11) concentration (CC50) was determined based on the viability of mock-infected cells. […]

[4] = test system: HIV-FL; test: microbe, parasite or virus in culture
Description: First, TZM-GFP cells were seeded in the 96-well plate (10 000/well), and after 24 h, selected compounds and HIV FL virus (MOI = 0.1) were added to the plate. […] At 48 h post-infection (hpi), GFP production due to infection was measured by Cytation 5, and a 50% reduction in efficacy (EC50) and cell viability (CC50) were determined using GraphPad software (San Diego, CA, USA, www.graphpad.com). […]
(10,000/well), and after 24 h, selected compounds and HIV FL (MOI=0.1) virus were added to the […]
plate. […] At 48 h post-infection (hpi), the GFP cells were measured by Cytation 5, and a 50% reduction in efficacy (EC50) and cell viability (CC50) was determined using GraphPad software (San Diego, California, www.graphpad.com). […]
as §2

[5] = test system: TZM-GFP cells; test: Cytotoxicity in TZM-GFP cells (XTT or MTT assay); format: cell-based
Description: as §3, §4, §5, §1, §6, §7, §8, §9, §10, §11

[6] = concentration reducing cellular viability by 50% after 48 h, XTT or MTT assay, P3HR-1 cells, read-out: CC50 (P3HR-1 Cells)
[7] = Human immunodeficiency virus 1, read-out: EC50, Antiviral Activity against HIV-FL (in TZM-GFP Cells)

With `Nc1ncnc2c1c(I)cn2[C@H]1CO[C@@H](CO)O1` [Compound 16] the CC50 at 48 h [1, 6] was 21.2 µM, the “antiviral activity against EBV (in words)” value (from here on “antiviral activity”) ([2]; P3HR-1 cells) was “potent anti-EBV activity” and the EC50 [2] was 0.47 ± 0.2 µM. The EC90 [2] was 1.5 ± 0.09 µM, the “SI (CC50/EC50), EBV” value [2] was 45 and the CC50 at 48 h [3] was 11.9 µM. For the same compound, the EC50 [4, 7] was 10.3 ± 0.39 µM.

For `C=Cc1cn([C@@H]2CO[C@H](CO)O2)c(=O)[nH]c1=O` [L-HDVD, reference compound], the CC50 at 48 h [1, 6] was greater than 100 µM, the EC50 [2] was 0.12 ± 0.01 µM and the EC90 [2] was 0.52 ± 0.04 µM. For the same compound, the “SI (CC50/EC50), EBV” value [2] was greater than 833.

`Nc1nc(O)c2ncn(COC(CO)CO)c2n1` [GCV, ganciclovir, reference compound] gave a CC50 at 48 h [1] greater than 100 µM, an EC50 [2] of 2.5 ± 0.22 µM and an EC90 [2] of 16.2 ± 0.21 µM. The “SI (CC50/EC50), EBV” value [2] was greater than 40.

With `CNc1nc(N)nc2c1ccn2[C@H]1CO[C@@H](CO)O1` [Compound 19] the CC50 at 48 h [1, 6] was 13.3 µM, the “antiviral activity” value ([2]; P3HR-1 cells) was “inactive” and the EC50 [2] was greater than 25 µM.

`Nc1ncnc2c1c(F)cn2[C@H]1CO[C@@H](CO)O1` [Compound 13] showed a CC50 at 48 h [1, 6] of 71.3 ± 25.6 µM, an EC50 [2] of 1.2 ± 1.8 µM and an EC90 [2] of 2.28 ± 1.29 µM. The CC50 at 48 h [3] was greater than 100 µM and the EC50 [4, 7] was 3.96 ± 0.39 µM.

Compound `Nc1ncnc2c1c(Cl)cn2[C@H]1CO[C@@H](CO)O1` [Compound 14] has a CC50 at 48 h [1, 6] greater than 100 µM, an EC50 [2] of 12.5 ± 0.8 µM and an EC90 [2] greater than 25 µM. For the same compound, the CC50 at 48 h [3] was 88 µM and the EC50 [4, 7] was 28.7 ± 0.45 µM.

For `Cc1[nH]c2ccccc2c1CC(=O)N[C@@H](Cc1ccccc1)C(=O)N(C)c1ccccc1` [PF-74, reference compound], the CC50 [5] was greater than 100 µM, the EC50 ([4]; read-out: EC50, Antiviral Activity against HIV-FL (in TZM-GFP Cells), 48 hpi, MOI = 0.1, TZM-GFP cells, mean of at least three experiments) was 0.6 ± 0.05 µM and the “SI (CC50/EC50), HIV-FL” value ([4]; selectivity index = CC50/EC50, TZM-GFP cells) was greater than 166.

For `Nc1ncnc2c1c(Br)cn2[C@H]1CO[C@@H](CO)O1` [Compound 15, 7-Bromo-deazapurine-D-dioxolane nucleoside], the CC50 at 48 h [1, 6] was 49.9 µM, the “potency against EBV relative to ganciclovir (times more potent)” value ([2]; EC50 compared with GCV, P3HR-1 cells) was 14 and the “antiviral activity” value ([2]; P3HR-1 cells) was “potent anti-EBV activity”. The EC50 [2] was 0.17 µM, the EC90 [2] was 0.54 ± 0.36 µM and the “SI (CC50/EC50), EBV” value [2] was 294. It also gave a CC50 at 48 h [3] of 41.9 µM and an EC50 [4, 7] of 20.8 ± 0.25 µM.

For `Nc1nc(F)nc2c1ccn2[C@H]1CO[C@@H](CO)O1` [Compound 18], the CC50 at 48 h [1, 6] was 91.7 µM, the EC50 [2] was 15.5 ± 3.7 µM and the EC90 [2] was greater than 23.9 µM. The “SI (CC50/EC50), EBV” value [2] was 6.

With `Nc1nc(N)c2ccn([C@H]3CO[C@@H](CO)O3)c2n1` [Compound 17] the CC50 at 48 h [1, 6] was greater than 100 µM, the EC50 [2] was 11.9 ± 0.3 µM and the “SI (CC50/EC50), EBV” value [2] was greater than 8.

With `Nc1ncnc2c1ccn2[C@H]1CO[C@@H](CO)O1` [Compound 12] the CC50 at 48 h [1, 6] was 91.3 µM, the “antiviral activity” value ([2]; P3HR-1 cells) was “inactive” and the EC50 [2] was greater than 25 µM. It also gave an EC90 [2] greater than 25 µM, a CC50 at 48 h [3] greater than 100 µM and an EC50 [4, 7] of 5.85 ± 1.01 µM.
